The values that follow come from ChEMBL document CHEMBL1158694, “Terphenylquinone inhibitors of the src protein tyrosine kinase from Stilbella sp” (J Nat Prod, 2005).

Structures are written as SMILES.

For this experiment, the target named is Proto-oncogene tyrosine-protein kinase Src (Homo sapiens, UniProt P12931). Put plainly: Inhibition of His-tagged human src kinase expressed in Sf9 cells by DELFIA assay.
Chain of Proto-oncogene tyrosine-protein kinase Src (P12931 2-536 limits assumed): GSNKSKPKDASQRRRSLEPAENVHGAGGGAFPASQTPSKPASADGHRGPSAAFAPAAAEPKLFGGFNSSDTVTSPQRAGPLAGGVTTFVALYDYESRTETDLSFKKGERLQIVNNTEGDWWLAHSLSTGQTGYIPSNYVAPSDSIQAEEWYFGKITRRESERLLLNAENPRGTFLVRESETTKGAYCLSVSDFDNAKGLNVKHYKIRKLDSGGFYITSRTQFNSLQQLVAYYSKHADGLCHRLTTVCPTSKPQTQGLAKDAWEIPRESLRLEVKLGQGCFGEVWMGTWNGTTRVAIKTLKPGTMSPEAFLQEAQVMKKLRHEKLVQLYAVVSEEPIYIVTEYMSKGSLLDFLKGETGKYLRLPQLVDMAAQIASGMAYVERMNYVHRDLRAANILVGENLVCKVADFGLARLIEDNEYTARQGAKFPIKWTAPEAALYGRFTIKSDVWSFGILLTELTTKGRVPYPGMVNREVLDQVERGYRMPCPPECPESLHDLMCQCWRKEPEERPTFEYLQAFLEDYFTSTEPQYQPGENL
The IC50 is the midpoint of a concentration-inhibition curve. Consider `O=C1C(O)=C(c2cc(O)c(O)c(O)c2)C(=O)C(O)=C1c1ccccc1`, for which the IC50 is 3.9 µM. This counts as single-digit micromolar.
With `O=C1C(O)=C(c2ccccc2)C(=O)C(O)=C1c1ccccc1`, the IC50 is more than 50 µM.
`O=C1C(c2ccccc2)=C(O)C(=O)c2c1oc1cc(O)c(O)cc21` came in with an IC50 of 23.6 µM. In other words, the double-digit micromolar range.
For the molecule `O=C1C(O)=C(c2ccc(O)c(O)c2)C(=O)C(O)=C1c1ccccc1`, the IC50 was 14.5 µM. This IC50 lies about 1.6-fold lower than the previous one.
`O=C1C(O)=C(c2ccc(O)cc2)C(=O)C(O)=C1c1ccccc1` yielded an IC50 of 37.5 µM.
